Source: US4587359A, “Amine-carbamoylborane adducts” (The United States of America as represented by the Secrtary …, priority 1984, dated 1986)
Read-outs that look alike come from different tables or passages of the source.

Legend:
[1] = Thermal stability / vacuum distillation; format: physicochemical; details: for thermal stability: higher temperature (>100° C.); for decomposition when subjected to vacuum distillation: oil-bath temperatures >100° C.
Protocol: The parent compound 1, trimethylamine-(ethylcarbamoyl)borane was prepared as previously described in B. F. Spielvogel et al., J. Am. Chem. Soc., 98 p. 5702 (1976) and I. H. Hall et al., J. Pharm. Sci., 68, p. 685 (1979) by refluxing (under dry N2) a solution of Me3 N.BH2 CN in CH2 Cl2 with 2 equivalents of triethyloxonium tetrafluoroborate for 24 hours. The compounds Me3 N.BH2 CN and triethyloxonium tetrafluoroborate are referred to in P. Wisian-Neilson et al., Inorg. Chem. 17, p. 2327 (1978) and H. Meerwein, Org. Synth., 46, p. 113 (1966), respectively. The resulting ethylnitrilium salt (not isolated) was hydrolyzed at 0° C. with 1N NaOH until basic and finally purified by vacuum distillation, giving a 75% yield. Dimethylamine-(ethylcarbamoyl)borane was made from 1 by a (CH3)2NH-exchange reaction in a pressure-glass vessel at room temperature for 8 days, and ca. 80% conversion (by ^1 H NMR) was obtained. Longer reaction periods (2-3 weeks) gave similar results. Amide 2 is readily purified by washing a CH2 Cl2 solution of the crude mixture with a small quantity of water whereby 1 is removed. The bulk CH2 Cl2 solution containing the product was dried, and rotary evaporation of the solvent gave 78% yield. Finally, the product was distilled under reduced pressure to get an analytical sample. […] The methylamine-(ethylcarbamoyl)borane and ammonia-(ethylcarbamoyl)borane were similarly prepared from 1 by exchange reactions with CH3 NH2 and NH3, respectively, in a glass pressure reaction vessel at room temperature for 1 week. The crude amide was purified by recrystallization from CH2 Cl2 /pentane, giving a 65% yield, whereas the ammonia analogue was recrystallized from distilled water, giving a 60% yield.

[2] = test system: Ehrlich ascites cells; experiment: Ehrlich Ascites tumor screen for antineoplastic activity; format: in vivo; details: 20 mg/kg/day intraperitoneally, days 1-9; CF male mice; day 10
Protocol: Use of compounds according to this invention in Ehrlich Ascites tumor screens for antineoplastic activity has been investigated.
CF male mice (~25 g) were inoculated intraperitoneally on day 0 with 2×10^6 Ehrlich ascites cells. Compositions containing compounds of this invention were prepared in 0.05% polysorbate 80 by homogenation and injected intraperitoneally on days 1-9 at 20 mg/kg/day. On day 10, the mice were sacrificed and the cells from the peritoneal cavity harvested. The total ascites tumor and packed cell (ascrit) volumes were determined and used to calculate the percent inhibition according to the procedure described in C. Piantadosi et al., J. Pharm. Sci., 58, p. 821 (1969). […] Mercaptopurine and mephalan were used as positive controls in the screen. Other pharmaceutically acceptable carriers, diluents, adjuvants or dosages are readily ascertainable by the skilled artisan.

[3] = test system: tumor; details: in mice; cited from earlier work
[4] = in mice; cited from earlier work
[5] = Toxicity in BALB/C mice; format: in vivo
[6] = test system: Harding-Passey melanorna; experiment: Tissue distribution study of boron (boron neutron capture therapy); format: in vivo, BALB/c mice; details: for Boron uptake, blood / Boron uptake, brain / Boron uptake, tumor: single saline i.p. injection, 40 μg boron per gram body weight
Protocol: (§1) In a tissue distribution study relating to treatment of tumor tissue in an animal by boron neutron capture therapy, a representative compound of this invention MeNH2.BH2 C(O)NHEt was administered in a single saline intraperitoneal injection sufficient to provide 40 μg boron per gram body weight to BALB/c mice carrying Harding-Passey melanorna.

[7] = as above; format: in vivo, BALB/c mice; details: mouse, ip, 40 mg/kg, single saline i.p. injection, 40 μg boron per gram body weight; for concentration at 1 h: 1 hr post injection
Protocol: as §1

[8] = Solubility
[9] = animal model studies; cited from earlier work
[10] = animal model studies; cited from earlier work; remark: listed apart in the source
[11] = 1 hr post injection, 40 mg/kg, 60 min

For CCNC(=O)[BH2-][NH+](C)C [Me2 NH.BH2 C(O)NHEt, Dimethylamine-(Ethylcarbamoyl)borane], the thermal stability [1] was “thermally unstable”, the “decomposition when subjected to vacuum distillation” value [1] was “considerable decomposition” and the “percent inhibition (ascites tumor and packed cell volumes)” value [2] was 72.2%.

In the case of C[N+](C)(C)[BH2-]C(=O)O [Me3 N.BH2 COOH], the antitumor activity [3] is listed as “significant” and the antihyperlipidemic activity [4] is listed as “significant”.

In the case of CCNC(=O)[BH2-][NH2+]C [MeNH2.BH2 C(O)NHEt, Methylamine-(ethylcarbamoyl)borane], the toxicity [5] was “not toxic”, the “percent inhibition (ascites tumor and packed cell volumes)” value [2] was 91% and the “Boron uptake, blood” value [6, 11] was 54.4 μg B per gram tissue. The “Boron uptake, brain” value [6, 11] was 39.8 μg B per gram tissue, the “Boron uptake, tumor” value [6, 11] was 48.7 μg B per gram tissue and the “Boron uptake, blood” value ([6]; 12 hr post injection) was 0 μg B per gram tissue. For the same compound, the “Boron uptake, brain” value ([6]; 12 hr post injection) was 0 μg B per gram tissue, the “Boron uptake, tumor” value ([6]; 12 hr post injection, 40 mg/kg, 720 min) was 2.8 μg B per gram tissue and the “uptake for conventional therapy, measured against the standard in clinical use Na2 B12 H11 SH” value ([6]; in words) was “inadequate”. For the same compound, the “concentration of the boron-containing compound in the tumor tissue” value ([6]; in words, BALB/c mice) was “some preferential differential concentration”, the concentration at 1 h ([7]; blood, read-out: Boron uptake, blood) was 54800 ng/g and the concentration at 1 h ([7]; brain, read-out: Boron uptake, brain) was 45300 ng/g. The concentration at 1 h ([7]; tumor, read-out: Boron uptake, tumor) was 51300 ng/g, the concentration at 12 h ([7]; tumor, 12 hr post injection, read-out: Boron uptake, tumor) was 3800 ng/g and the solubility [8] was “good”.

In the case of CCNC(=O)[BH2-][N+](C)(C)C [Trimethylamine-(ethylcarbamoyl)borane, Trimethylamine-(Ethylcarbamoyl)borane], the antiarthritic activity [9] is given as “significant”, the antitumor activity [3] is given as “significant” and the thermal stability [1] is given as “thermally unstable”. For the same compound, the “decomposition when subjected to vacuum distillation” value [1] was “considerable decomposition”, the antihyperlipidemic activity [4] was “significant” and the antiinflammatory activity [10] was “significant”.
